Assays:
[1] = observed in humans; cited from earlier work
[2] = test system: Saccharomyces cerevisiae BY4742; test: Anti-yeast activity assay (minimum inhibitory concentration); format: cell-based; details: YPD media, 96-well plates, 30° C. for 16 hours without shaking, lowest concentration with no obvious culture growth, triplicate, read-out: MIC against Saccharomyces cerevisiae BY4742
Experimental: A single colony of Saccharomyces cerevisiae BY4742 was inoculated into 2 mL YPD media in a 5 mL falcon tube to grow overnight at 30° C. The overnight culture was inoculated into 5 mL YPD media in a glass tube at OD600-0.1, and the new culture was grown at 30° C. until OD600 reached 0.5. The culture was then diluted to OD600-0.01 and aliquoted into 96-well plates at 100 μL per well. The compound was dissolved in ethanol at 75 μM. Three-fold serial dilutions were conducted for the Compound 10 times using ethanol, respectively. 4 μL of each concentration compound solution was added and mixed with 384 μL YPD media. 100 μL of the YPD media solutions were mixed with the Saccharomyces cerevisiae cultures in 96-well plates by pipette, respectively. The plates were incubated at 30° C. for 16 hours without shaking. The lowest Compound concentrations in wells that have no obvious culture growth were defined as the minimum inhibitory concentrations (MICs). The assays were conducted in triplicate.

MIC [2] [µM] | Compound | terminal half-life [1] [h]
 | CO[C@H]1C[C@@H]2CC[C@@H](C)[C@@](O)(O2)C(=O)C(=O)N2CCCC[C@H]2C(=O)O[C@H]([C@H](C)C[C@@H]2CC[C@@H](O)[C@H](OC)C2)CC(=O)[C@H](C)/C=C(\C)[C@@H](O)[C@@H](OC)C(=O)[C@H](C)C[C@H](C)/C=C/C=C/C=C/1C [rapamycin] | 24 to 48
< 0.0556 | CO[C@@H]1/C(C)=C/C=C/C=C/[C@@H](C)C[C@@H](C)C(=O)[C@H](OC)[C@H](O)/C(C)=C/[C@@H](C)C(=O)C[C@@H]([C@H](C)C[C@@H]2CC[C@@H](O)[C@H](OC)C2)OC(=O)[C@@H]2CCCCN2C(=O)C(=O)[C@]2(O)O[C@@H](CC[C@H]2C)[C@H]1C (single isomer, unassigned) [Compound 15] | 

— patent publication US20240376122A1, “SMALL MOLECULE COMPOUNDS” (APERTOR PHARMACEUTICALS, INC., priority 2021, published 2024)
